Source: ChEMBL document CHEMBL5042514, “Picolylamine-functionalized benz[e]indole squaraine dyes: Synthetic approach, characterization and in vitro efficacy as potential anticancer phototherapeutic agents” (Eur J Med Chem, 2022)
Active and inactive are the calls of the source. The rule behind the calls is not given here.

Key:
[1] = Phototoxicity against human MCF7 cells assessed as reduction in cell viability preincubated for 24 hrs followed by 7 mins of LED light irradiation by MTT assay; assay type: toxicity, cell-based; details: MCF7, light or radiation study
Albumin = Albumin (Homo sapiens, UniProt P02768); assay: Binding affinity to human serum albumin assessed as binding constant by fluorescence based assay
Sequence of Albumin (P02768 whole entry): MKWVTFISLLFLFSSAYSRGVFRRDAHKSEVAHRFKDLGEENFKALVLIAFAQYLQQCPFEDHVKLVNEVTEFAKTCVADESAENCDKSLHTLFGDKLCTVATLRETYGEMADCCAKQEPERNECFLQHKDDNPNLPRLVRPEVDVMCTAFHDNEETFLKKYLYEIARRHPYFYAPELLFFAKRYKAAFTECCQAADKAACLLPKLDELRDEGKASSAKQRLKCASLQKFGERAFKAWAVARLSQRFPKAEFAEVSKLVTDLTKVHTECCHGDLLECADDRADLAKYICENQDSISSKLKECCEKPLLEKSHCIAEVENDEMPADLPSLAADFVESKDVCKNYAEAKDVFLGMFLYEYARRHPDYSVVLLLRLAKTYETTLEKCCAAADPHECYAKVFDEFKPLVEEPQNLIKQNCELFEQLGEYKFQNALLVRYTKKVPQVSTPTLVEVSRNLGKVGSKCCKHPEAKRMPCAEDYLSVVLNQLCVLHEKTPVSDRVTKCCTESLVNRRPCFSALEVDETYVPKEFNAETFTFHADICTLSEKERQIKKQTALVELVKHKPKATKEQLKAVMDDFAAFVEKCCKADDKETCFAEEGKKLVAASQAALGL

[2] = Dark toxicity against human PC-3 cells assessed as reduction in cell viability incubated for 24 hrs by MTT assay; assay type: cell-based
HeLa [3] = assay: Induction of cell cycle arrest in human HeLa cells assessed as accumulation of hypodiploid cells in sub-G1 phase at 0.25 to 1 uM measured after 24 hrs in the absence of light by PI staining based flow cytometry analysis; assay type: functional; details: dose 0.25-1 µM
HeLa [4] = assay: Induction of morphological change in human HeLa cells assessed as intracellular space dilation at 1 uM preincubated for 24 hrs followed by 7 mins of LED light irradiation and measured upto 48 hrs by microscopic analysis; assay type: functional, cell-based; details: time min <=4327
HeLa [5] = assay: Induction of cell cycle arrest in human HeLa cells assessed as accumulation in S phase at 0.25 uM by PI staining based flow cytometry analysis (reference value: 32.14 %); assay type: functional
[6] = Phototoxicity ratio of IC50 for cytotoxicity against human Caco-2 cells assessed as reduction in cell viability in dark to IC50 for phototoxicity against human Caco-2 cells upon LED light irradiation; assay type: toxicity, cell-based
[7] = Phototoxicity ratio of IC50 for cytotoxicity against human HeLa cells assessed as reduction in cell viability in dark to IC50 for phototoxicity against human HeLa cells upon LED light irradiation; assay type: toxicity, cell-based
HeLa [8] = assay: Induction of cell cycle arrest in human HeLa cells assessed as accumulation in G2/M phase at 0.25 uM with red light radiation for 7 mins by PI staining based flow cytometry analysis (reference value: 4.73 %); assay type: functional
[9] = Phototoxicity against human PC-3 cells assessed as reduction in cell viability preincubated for 24 hrs followed by 7 mins of LED light irradiation by MTT assay; assay type: toxicity, cell-based; details: PC-3, light or radiation study
[10] = Selectivity ratio of IC50 for phototoxicity against human NHDF cells upon LED light irradiation to IC50 for phototoxicity against human Caco-2 cells upon LED light irradiation; assay type: toxicity, cell-based; details: NHDF cells versus Caco-2 cells, read-out: Ratio IC50
HeLa [11] = assay: Induction of cell cycle arrest in human HeLa cells assessed as accumulation in G2/M phase at 0.25 uM by PI staining based flow cytometry analysis (reference value: 4.79 %); assay type: functional
HeLa [12] = assay: Induction of cell cycle arrest in human HeLa cells assessed as accumulation in G0/G1 phase at 0.25 uM by PI staining based flow cytometry analysis (reference value: 67.03 %); assay type: functional
HeLa [13] = assay: Induction of cell cycle arrest in human HeLa cells assessed as accumulation in S phase at 0.25 uM with red light radiation for 7 mins by PI staining based flow cytometry analysis (reference value: 32.09 %); assay type: functional
[14] = Dark toxicity against human Caco-2 cells assessed as reduction in cell viability incubated for 24 hrs by MTT assay; assay type: cell-based
[15] = Selectivity ratio of IC50 for phototoxicity against human NHDF cells upon LED light irradiation to IC50 for phototoxicity against human MCF7 cells upon LED light irradiation; assay type: toxicity, cell-based; details: NHDF cells versus MCF7 cells, read-out: Ratio IC50
HeLa [16] = assay: Induction of morphological change in human HeLa cells assessed as rounded cell morphology at 0.25 uM preincubated for 24 hrs followed by 7 mins of LED light irradiation and measured upto 48 hrs by microscopic analysis; assay type: functional, cell-based; details: time min <=4327
[17] = Drug localization in mitochondria of human HeLa cells at 1 uM incubated for 24 hrs by Rhodamine 123 based confocal laser scanning microscopy analysis; assay type: ADME
[18] = Phototoxicity ratio of IC50 for cytotoxicity against human MCF7 cells assessed as reduction in cell viability in dark to IC50 for phototoxicity against human MCF7 cells upon LED light irradiation; assay type: toxicity, cell-based
[19] = Phototoxicity ratio of IC50 for cytotoxicity against human PC-3 cells assessed as reduction in cell viability in dark to IC50 for phototoxicity against human PC-3 cells upon LED light irradiation; assay type: toxicity, cell-based
[20] = Phototoxicity against human HeLa cells assessed as reduction in cell viability preincubated for 24 hrs followed by 7 mins of LED light irradiation by MTT assay; assay type: toxicity, cell-based; details: light or radiation study
HeLa [21] = assay: Induction of cell cycle arrest in human HeLa cells assessed as accumulation in G0/G1 phase at 1 uM by PI staining based flow cytometry analysis (reference value: 67.03 %); assay type: functional
HeLa [22] = assay: Induction of apoptosis in human HeLa cells assessed as increase in DNA cleavage at 1 uM preincubated for 24 hrs followed by 7 mins LED light irradiation and measured after 24 hrs by PI staining based flow cytometry analysis; assay type: functional; details: time 2887 min, 48.12 h
[23] = Phototoxicity against human NHDF cells assessed as reduction in cell viability preincubated for 24 hrs followed by 7 mins of LED light irradiation by MTT assay; assay type: toxicity, cell-based
HeLa [24] = assay: Induction of cell cycle arrest in human HeLa cells assessed as accumulation in S phase at 1 uM by PI staining based flow cytometry analysis (reference value: 32.14 %); assay type: functional
[25] = Selectivity ratio of IC50 for phototoxicity against human NHDF cells upon LED light irradiation to IC50 for phototoxicity against human HeLa cells upon LED light irradiation; assay type: toxicity, cell-based; details: NHDF cells versus HeLa cells, read-out: Ratio IC50
HeLa [26] = assay: Induction of morphological change in human HeLa cells assessed as plasma membrane rupture at 1 uM preincubated for 24 hrs followed by 7 mins of LED light irradiation and measured upto 48 hrs by microscopic analysis; assay type: functional; details: time min <=4327
[27] = Phototoxicity ratio of IC50 for cytotoxicity against human NHDF cells assessed as reduction in cell viability in dark to IC50 for phototoxicity against human NHDF cells upon LED light irradiation; assay type: toxicity, cell-based; details: read-out: Ratio IC50
HeLa [28] = assay: Induction of morphological change in human HeLa cells assessed as reduction in adhesion at 0.25 uM preincubated for 24 hrs followed by 7 mins of LED light irradiation and measured upto 48 hrs by microscopic analysis; assay type: functional, cell-based; details: time min <=4327
[29] = Dark toxicity against human MCF7 cells assessed as reduction in cell viability incubated for 24 hrs by MTT assay; assay type: cell-based
[30] = Selectivity ratio of IC50 for phototoxicity against human NHDF cells upon LED light irradiation to IC50 for phototoxicity against human PC-3 cells upon LED light irradiation; assay type: toxicity, cell-based; details: NHDF cells versus PC-3 cells, read-out: Ratio IC50
HeLa [31] = assay: Induction of morphological change in human HeLa cells assessed as cell shrinkage at 0.25 uM preincubated for 24 hrs followed by 7 mins of LED light irradiation and measured upto 48 hrs by microscopic analysis; assay type: functional, cell-based; details: time min <=4327
[32] = Dark toxicity against human NHDF cells assessed as reduction in cell viability incubated for 24 hrs by MTT assay; assay type: cell-based
[33] = Dark toxicity against human HeLa cells assessed as reduction in cell viability incubated for 24 hrs by MTT assay; assay type: cell-based
HeLa [34] = assay: Induction of cell cycle arrest in human HeLa cells assessed as accumulation in G0/G1 phase at 0.25 uM with red light radiation for 7 mins by PI staining based flow cytometry analysis (reference value: 63.18%); assay type: functional
[35] = Drug localization in lysosome of human HeLa cells at 1 uM incubated for 24 hrs by Green Fluorescent Protein based confocal laser scanning microscopy analysis; assay type: ADME, subcellular
HeLa [36] = assay: Induction of apoptosis in human HeLa cells at 0.25 uM preincubated for 24 hrs followed by 7 mins LED light irradiation and measured after 24 hrs by PI staining based flow cytometry analysis; assay type: functional; details: time 2887 min, 48.12 h
HeLa [37] = assay: Induction of cell cycle arrest in human HeLa cells assessed as accumulation in G2/M phase at 1 uM by PI staining based flow cytometry analysis (reference value: 4.79 %); assay type: functional
[38] = Phototoxicity against human Caco-2 cells assessed as reduction in cell viability preincubated for 24 hrs followed by 7 mins of LED light irradiation by MTT assay; assay type: toxicity, cell-based; details: Caco-2, light or radiation study
HeLa [39] = assay: Induction of apoptosis in human HeLa cells at 0.24 uM preincubated for 24 hrs followed by 7 mins LED light irradiation and measured after 24 hrs by PI staining based flow cytometry analysis; assay type: functional; details: time 2887 min, 48.12 h
HeLa [40] = assay: Induction of cell cycle arrest in human HeLa cells assessed as accumulation in G2/M phase at 0.24 uM by PI staining based flow cytometry analysis (reference value: 4.79 %); assay type: functional
HeLa [41] = assay: Induction of cell cycle arrest in human HeLa cells assessed as accumulation in S phase at 0.24 uM with red light radiation for 7 mins by PI staining based flow cytometry analysis (reference value: 32.09 %); assay type: functional
HeLa [42] = assay: Induction of cell cycle arrest in human HeLa cells assessed as accumulation in G2/M phase at 0.24 uM with red light radiation for 7 mins by PI staining based flow cytometry analysis (reference value: 4.73 %); assay type: functional
HeLa [43] = assay: Induction of cell cycle arrest in human HeLa cells assessed as accumulation in G0/G1 phase at 0.24 uM with red light radiation for 7 mins by PI staining based flow cytometry analysis (reference value: 63.18 %); assay type: functional
HeLa [44] = assay: Induction of cell cycle arrest in human HeLa cells assessed as accumulation in G0/G1 phase at 0.24 uM by PI staining based flow cytometry analysis (reference value: 67.03 %); assay type: functional
[45] = Genotoxicity in human HeLa cells assessed as genetic damage index at 1 uM measured after 24 hrs in absence of light by alkali comet assay; assay type: toxicity, cell-based
HeLa [46] = assay: Induction of cell cycle arrest in human HeLa cells assessed as accumulation in S phase at 0.24 uM by PI staining based flow cytometry analysis (reference value: 32.14 %); assay type: functional

CCN1/C(=C/C2=C([O-])C(=C/C3=[N+](CC)c4ccc5ccccc5c4C3(C)C)/C2=O)C(C)(C)c2c1ccc1ccccc21
IC50 [1]: 0.232 µM
Kb (Albumin): 2.01 10^5/M
IC50 at 24 h [2]: > 10 µM
Activity (HeLa [3]): 1%
Activity (HeLa [4]): Active
Activity (HeLa [5]): 25.84%
Ratio IC50 [6]: > 30.1
Ratio IC50 [7]: > 40.8
Activity (HeLa [8]): 9.71%
IC50 [9]: 0.19 µM
selectivity ratio [10]: 0.67
Activity (HeLa [11]): 5.19%
Activity (HeLa [12]): 68.96%
Activity (HeLa [13]): 31.5%
IC50 at 24 h [14]: > 10 µM
selectivity ratio [15]: 0.96
Activity (HeLa [16]): Active
Drug uptake [17]: Active
Ratio IC50 [18]: > 43.1
Ratio IC50 [19]: > 52.6
IC50 [20]: 0.245 µM
Activity (HeLa [21]): 70.47%
Activity (HeLa [22]): 98%
IC50 at 24 h [23]: 0.222 µM
Activity (HeLa [24]): 25.92%
selectivity ratio [25]: 0.91
Activity (HeLa [26]): Active
selectivity ratio [27]: > 45
Activity (HeLa [28]): Active
IC50 at 24 h [29]: > 10 µM
selectivity ratio [30]: 1.17
Activity (HeLa [31]): Active
IC50 at 24 h [32]: > 10 µM
IC50 at 24 h [33]: > 10 µM
Activity (HeLa [34]): 58.79%
Drug uptake [35]: Not Active
Activity (HeLa [36]): 17%
Activity (HeLa [37]): 3.61%
IC50 [38]: 0.332 µM

CCN1/C(=C/C2=C(NCc3ccccn3)C(=C/C3=[N+](CC)c4ccc5ccccc5c4C3(C)C)/C2=O)C(C)(C)c2c1ccc1ccccc21.[I-]
IC50 [1]: 0.165 µM
Kb (Albumin): 6.93 10^5/M
IC50 at 24 h [2]: 2.07 µM
Activity (HeLa [4]): Active
Ratio IC50 [6]: 21.9
Ratio IC50 [7]: 9.1
IC50 [9]: 0.087 µM
selectivity ratio [10]: 2.86
Activity (HeLa [39]): 2%
Activity (HeLa [40]): 4%
IC50 at 24 h [14]: 2.02 µM
selectivity ratio [15]: 1.59
Activity (HeLa [16]): Active
Drug uptake [17]: Active
Ratio IC50 [18]: 9.8
Ratio IC50 [19]: 23.8
Activity (HeLa [41]): 16.91%
IC50 [20]: 0.24 µM
Activity (HeLa [21]): 68.34%
Activity (HeLa [22]): 68%
IC50 at 24 h [23]: 0.263 µM
Activity (HeLa [24]): 26.68%
selectivity ratio [25]: 1.1
Activity (HeLa [26]): Active
Activity (HeLa [42]): 15.95%
Activity (HeLa [43]): 67.14%
selectivity ratio [27]: 8.1
Activity (HeLa [28]): Active
Activity (HeLa [44]): 73.97%
IC50 at 24 h [29]: 1.61 µM
selectivity ratio [30]: 3.02
Activity (HeLa [31]): Active
IC50 at 24 h [32]: 2.13 µM
IC50 at 24 h [33]: 2.18 µM
Drug uptake [35]: Not Active
Activity [45]: 24 a.u.
Activity (HeLa [46]): 22.04%
Activity (HeLa [37]): 4.98%
IC50 [38]: 0.092 µM
